Reference: publication PMC8285423, “In vitro efficacy of artemisinin-based treatments against SARS-CoV-2” (Scientific Reports, 2021)
Values after ≈ are worked out from the molar mass of the structure shown.

What was measured:
[1] = tested on: SARS-CoV-2/human/Denmark/DK-AHH1/2020; test: Concentration–response pretreatment antiviral assay in VeroE6 cells (spike immunostaining); assay type: cell-based; settings: for EC50: Severe acute respiratory syndrome coronavirus 2, Vero C1008, added 1.5 h prior to infection, 2-day incubation
[2] = tested on: SARS-CoV-2/human/Denmark/DK-AHH1/2020; test: Concentration–response treatment antiviral assay in VeroE6 cells (spike immunostaining); assay type: cell-based; settings: for EC50: Severe acute respiratory syndrome coronavirus 2, Vero C1008; for concentration at which almost / close to complete virus inhibition was achieved: treatment assay
[3] = tested on: SARS-CoV-2/human/Denmark/DK-AHH1/2020; test: microbe, parasite or virus in culture; assay type: cell-based
[4] = tested on: SARS-CoV-2/human/Denmark/DK-AHH1/2020; test: microbe, parasite or virus in culture; assay type: cell-based; settings: for EC50: Severe acute respiratory syndrome coronavirus 2, 48 h
[5] = Cell viability assay (CellTiter 96 AQueous One) in A549-hACE2 cells; assay type: cell-based; settings: human, no infection
[6] = tested on: SARS-CoV-2; test: Treatment assays summarised over different cell types (VeroE6, Huh7.5, A549-hACE2); assay type: cell-based; settings: Severe acute respiratory syndrome coronavirus 2, VeroE6, Huh7.5, A549-hACE2 cells, read-out: range of 50% effective concentrations (EC50) in different cell types
[7] = in vitro; settings: African green monkey
Description: (§1) To evaluate cytotoxic effects of the tested extracts, compounds, and diluents (DMSO), cell viability was monitored using the CellTiter 96 AQueous One Solution Cell Proliferation Assay (Promega, Madison, WI, USA). VeroE6 cells, Huh7.5 cells or A549-hACE2 cells were plated at 10,000, 8000 or 10,000 cells per well of flat bottom 96-well plates, respectively (Thermo Fisher Scientific, Roskilde, Denmark). The next day, medium was exchanged to contain specified concentrations of extracts or compounds or dilutions of DMSO adding 100 µL per well. Each concentration or dilution was tested in 3 replicates; at least 6 nontreated control wells were included in the assay. For VeroE6 cells and A549-hACE2 cells, after 48 ± 2 h, and for Huh7.5 cells, after 72 ± 2 h of incubation at 37 °C and 5% CO2, 20 µL CellTiter 96 AQueous One Solution Reagent was added per well and plates were incubated for 1.5 to 2 h at 37 °C and 5% CO2, prior to recording absorbance at 492 nm using a FLUOstar OPTIMA 96-well plate reader (BMG LABTECH, Offenburg, Germany). Absorbance recorded in each well was related to the average absorbance of nontreated control wells to calculate the percentage of cell viability. Datapoints included in figures are means of triplicates from one independent experiment with SEM. Sigmoidal dose response curves were fitted and median cytotoxic concentration (CC50) values were calculated with GraphPad Prism 8.0.0 using a bottom constraint of 0 and the formula Y = Top/(1 + 10^((LogCC50-X) * HillSlope)) as further specified in Figures S5, S7, and S9.

[8] = Cell viability assay (CellTiter 96 AQueous One) in Huh7.5 cells; settings: human
Description: as §1

[9] = tested on: SARS-CoV-2/human/Germany/BavPat 1/2020; test: Plaque reduction antiviral assay (pretreatment) in VeroE6 cells; assay type: cell-based; settings: addition prior to virus addition
[10] = Cell viability assay (CellTiter 96 AQueous One) in VeroE6 cells; settings: African green monkey
Description: as §1

[11] = tested on: SARS-CoV-2/human/Denmark/DK-AHH1/2020; test: Time-of-addition experiment with artesunate in A549-hACE2 cells; assay type: cell-based; settings: for inhibition at 14 µg/mL: read-out: inhibition of viral infection
[12] = tested on: SARS-CoV-2 isolate from Wuhan; design: method as in earlier work; settings: VeroE6 cells, assay terminated 24 h post infection, ref 22 (Cao et al.); cited from earlier work
[13] = animal studies; single dose; cited from earlier work
[14] = VeroE6 cells, added 1 h post infection, 2-day incubation, read-out: EC50 Treatment assay
[15] = Severe acute respiratory syndrome coronavirus 2, 72 h, Huh7.5 cells, treatment assay, added directly after inoculation, 3-day incubation, read-out: EC50
[16] = A549-hACE2 cells, treatment assay, added directly after inoculation, 2-day incubation, read-out: EC50

Row | Structure (SMILES) | EC50 [1] | EC50 [2, 14] | concentration at which almost / close to complete virus inhibition was achieved ([2]; VeroE6 cells) | CC50 at 48 h [5] | EC50 [6] | CC50 at 72 h [8] | EC50 [3, 15] | EC50 [4, 16] | CC50 at 48 h [10] | further results
1 | CO[C@H]1O[C@@H]2O[C@@]3(C)CC[C@H]4[C@H](C)CC[C@@H]([C@H]1C)[C@@]24OO3 [Artemether] | 147 µg/mL (≈ 493 µM) | 98 µg/mL | ≥ 153 µg/mL | 380 µg/mL (≈ 1270 µM) | 53 to 98 µg/mL (≈ 178 to 328 µM) | 127 µg/mL (≈ 426 µM) | – | – | – | inhibition at 153 µg/mL ([1]; Severe acute respiratory syndrome coronavirus 2, Vero C1008, pretreatment assay, 153 µg/mL, read-out: virus inhibition): 52%; EC50 ([3]; Severe acute respiratory syndrome coronavirus 2, Huh7.5, 72 h): 64 µg/mL (≈ 214 µM); inhibition at 65 µg/mL ([3]; Severe acute respiratory syndrome coronavirus 2, Huh7.5, read-out: virus inhibition): 56%; concentration with close to complete virus inhibition ([4]; A549-hACE2 cells, treatment assay): 92 µg/mL; EC50 [4]: 53 µg/mL (≈ 178 µM); CC50 at 48 h [7]: 360 µg/mL (≈ 1210 µM)
2 | C[C@@H]1CC[C@H]2[C@@H](C)C(=O)O[C@@H]3O[C@@]4(C)CC[C@@H]1[C@]32OO4 [Artemisinin] | 238 µg/mL (≈ 843 µM) | 151 µg/mL | 1208 µg/mL | 1530 µg/mL (≈ 5410 µM) | – | 5070 µg/mL (≈ 17900 µM) | > 208 µg/mL | 168 µg/mL (≈ 595 µM) | 8220 µg/mL (≈ 29100 µM) | concentration at which almost / close to complete virus inhibition was achieved ([1]; pretreatment assay): 893 µg/mL; virus inhibition ([3]; Huh7.5 cells, treatment assay, highest evaluated (non-cytotoxic) concentration 208 µg/mL): no significant virus inhibition; inhibition at 208 µg/mL ([3]; Severe acute respiratory syndrome coronavirus 2, Huh7.5 cells, treatment assay, highest evaluated (non-cytotoxic) concentration 208 µg/mL): < 50%; effect on plaque formation (in words) [9]: little antiviral activity
3 | C[C@H]1[C@H](OC(=O)CCC(=O)O)O[C@@H]2O[C@@]3(C)CC[C@H]4[C@H](C)CC[C@@H]1[C@@]24OO3 [Artesunate] | – | 7 µg/mL | 15 µg/mL | 27 µg/mL (≈ 70.2 µM) | 7 to 12 µg/mL (≈ 18.2 to 31.2 µM) | 93 µg/mL (≈ 242 µM) | 11 µg/mL (≈ 28.6 µM) | 12 µg/mL (≈ 31.2 µM) | 41 µg/mL (≈ 107 µM) | inhibition at 15 µg/mL ([1]; Severe acute respiratory syndrome coronavirus 2, Vero C1008, pretreatment assay, 15 µg/mL (highest evaluated concentration), read-out: virus inhibition): 69%; EC50 ([2]; VeroE6 treatment assay, read-out: EC50): 18 µM; concentration with close to complete virus inhibition ([3]; Huh7.5 cells, treatment assay): 22 µg/mL; inhibition at 14 µg/mL ([4]; Severe acute respiratory syndrome coronavirus 2, A549-hACE2 cells, treatment assay, highest evaluated concentration 14 µg/mL): 63%; inhibition of viral infection ([11]; 14 µg/mL, added 0 h post inoculation, present during the 2 h viral infection phase): did not result in inhibition; inhibition at 14 µg/mL ([11]; Severe acute respiratory syndrome coronavirus 2, added 2 h post inoculation): ≥ 80%; inhibition at 14 µg/mL ([11]; Severe acute respiratory syndrome coronavirus 2, added 4 h post inoculation): ≥ 80%; inhibition at 14 µg/mL ([11]; Severe acute respiratory syndrome coronavirus 2, added 6 h post inoculation): ≥ 80%; EC50 [12]: 13 µM; tissue concentrations (lung, kidney, intestine, spleen) versus plasma concentrations [13]: several-fold higher
